Each structure is given as a SMILES string. Values joined by “and” are separate entries in the source; they are usually repeats but may differ in a detail not shown here. Equal values may be shown once. Toxic doses and inconclusive results are not listed.

In this assay the test system is BDF1 mice, B16 melanoma ip, median survival T/C. As to the kind of experiment: NCI In Vivo Anticancer Drug Screen. Data for tumor model B16 Melanoma (intraperitoneal) in B6D2F1 (BDF1) mice. The settings on record: endpoint: median survival time, higher = longer survival. Summed up: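 Antitumor activity is assessed in mice bearing a transplanted tumor, with survival or tumor size compared against vehicle-dosed controls and expressed as T/C.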

The mark [1] stands for this setting: dose: 12.5 mg/kg/injection, schedule: Q01DX009 (ip), vehicle: Klucel (hydroxypropylcellulose) (HPC).
Setting [2] is: dose: 25.0 mg/kg/injection, schedule: Q01DX009 (ip), vehicle: Klucel (hydroxypropylcellulose) (HPC).
[3] abbreviates: dose: 50.0 mg/kg/injection, schedule: Q01DX009 (ip), vehicle: Klucel (hydroxypropylcellulose) (HPC).
Setting [4] is: dose: 25.0 mg/kg/injection, schedule: Q01DX009 (ip), vehicle: saline with Tween-80.
[5] abbreviates: dose: 50.0 mg/kg/injection, schedule: Q01DX009 (ip), vehicle: saline with Tween-80.
The mark [6] stands for this setting: dose: 100.0 mg/kg/injection, schedule: Q01DX009 (ip), vehicle: saline with Tween-80.
Setting [7] is: dose: 200.0 mg/kg/injection, schedule: Q01DX009 (ip), vehicle: saline with Tween-80.
Where [8] appears, read: dose: 25.0 mg/kg/injection, schedule: Q01DX009 (ip), vehicle: saline.
The mark [9] stands for this setting: dose: 50.0 mg/kg/injection, schedule: Q01DX009 (ip), vehicle: saline.
[10] abbreviates: dose: 100.0 mg/kg/injection, schedule: Q01DX009 (ip), vehicle: saline.
[11] abbreviates: dose: 6.25 mg/kg/injection, schedule: Q01DX009 (ip), vehicle: saline with Tween-80.
Setting [12] is: dose: 12.5 mg/kg/injection, schedule: Q01DX009 (ip), vehicle: saline with Tween-80.
Where [13] appears, read: dose: 10.0 mg/kg/injection, schedule: Q01DX009 (ip), vehicle: saline with Tween-80.

Consider `C[C@H](N)C(=O)N[C@@H]1[C@H]2C(=C(O)C[C@@H](O)[C@@H]2O)C(=O)O[C@@H]1C`, for which the T/C by setting is: (dose: 150.0 mg/kg/injection, schedule: Q01DX009 (ip), vehicle: saline) 100 % of control; (dose: 300.0 mg/kg/injection, schedule: Q01DX009 (ip), vehicle: saline) 102 % of control; (dose: 600.0 mg/kg/injection, schedule: Q01DX009 (ip), vehicle: saline) 106 % of control; (dose: 1200.0 mg/kg/injection, schedule: Q01DX009 (ip), vehicle: saline) 116 % of control.
With `CC1(S)CCC2CC1C2(C)C` (stereo unspecified), the T/C by setting is: under setting [1], 94 % of control; under setting [2], 94 % of control; under setting [3], 89 % of control.
As for `CC12C=CC(C=C1)C(O)C2` (stereo unspecified), the T/C is, setting by setting: (dose: 100.0 mg/kg/injection, schedule: Q04DX003 (ip), vehicle: saline with Tween-80) 112 % of control; (dose: 200.0 mg/kg/injection, schedule: Q04DX003 (ip), vehicle: saline with Tween-80) 93 % of control; (dose: 400.0 mg/kg/injection, schedule: Q04DX003 (ip), vehicle: saline with Tween-80) 101 % of control.
As for `CCC[CH2][Sn]1([CH2]CCC)[O]OC(c2ccc(OC)cc2)[O]1` (stereo unspecified), the T/C (dose: 3.12 mg/kg/injection, schedule: Q01DX009 (sc), vehicle: olive oil, sesame oil, peanut oil) is 93 % of control.
On to `COc1cc(C(C)c2cc3c(cc2OCCO)OCO3)cc(OC)c1OC` (stereo unspecified), for which the T/C runs as follows: under setting [4], 107 % of control; under setting [5], 104 % of control; under setting [6], 110 % of control; under setting [7], 112 % of control.
In the case of `OC(CC1(O)C(F)(F)C(F)(F)C1(F)F)c1ccccc1` (stereo unspecified), the T/C is 107 % of control under setting [5], 110 % of control under setting [6] and 94 % of control under setting [7].
Take `Cc1ccn(C(N)=O)n1`: the T/C is, setting by setting: (dose: 100.0 mg/kg/injection, schedule: Q01DX009 (ip), vehicle: Klucel (hydroxypropylcellulose) (HPC)) 93 % of control; (dose: 200.0 mg/kg/injection, schedule: Q01DX009 (ip), vehicle: Klucel (hydroxypropylcellulose) (HPC)) 109 % of control.
`CCc1cccc(CC)c1N1C(=O)C=CC1=O`: the T/C by setting is: (dose: 0.2 mg/kg/injection, schedule: Q01DX009 (ip), vehicle: saline with Tween-80) 97 % of control; (dose: 0.39 mg/kg/injection, schedule: Q01DX009 (ip), vehicle: saline with Tween-80) 99 % of control; (dose: 0.78 mg/kg/injection, schedule: Q01DX009 (ip), vehicle: saline with Tween-80) 92 % of control; (dose: 1.56 mg/kg/injection, schedule: Q01DX009 (ip), vehicle: saline with Tween-80) 86 % of control and 90 % of control.
On to `CCN(CC)CCNC1CCCCC1`, for which the T/C reads like this: under setting [8], 102 % of control; under setting [9], 112 % of control; under setting [10], 98 % of control.
Turning to `CC(C)=CC1C(C(=O)OCc2ccc(C)cc2C)C1(C)C` (stereo unspecified), the T/C was 99 % of control under setting [11], 104 % of control under setting [12], 110 % of control under setting [4] and 103 % of control under setting [5].
As to `NC(N)=NC(N)=Nc1ccc(S(=O)(=O)O)cc1`, the T/C was 94 % of control under setting [6]; 104 % of control under setting [7]; 98 % of control (dose: 400.0 mg/kg/injection, schedule: Q01DX009 (ip), vehicle: saline with Tween-80).
In the case of `Cc1cc(O)c(N=Nc2ccc(C(=O)O)cc2)cc1C`, the T/C runs as follows: (dose: 12.5 mg/kg/injection, schedule: Q01DX009 (ip), vehicle: suspension in saline) 109 % of control; (dose: 25.0 mg/kg/injection, schedule: Q01DX009 (ip), vehicle: suspension in saline) 106 % of control; (dose: 50.0 mg/kg/injection, schedule: Q01DX009 (ip), vehicle: suspension in saline) 109 % of control; (dose: 100.0 mg/kg/injection, schedule: Q01DX009 (ip), vehicle: suspension in saline) 90 % of control; (dose: 200.0 mg/kg/injection, schedule: Q01DX009 (ip), vehicle: suspension in saline) 87 % of control.
Turning to `C1=NCCCN1`, the T/C is, setting by setting: under setting [8], 114 % of control; under setting [9], 117 % of control; under setting [10], 113 % of control.
For the compound `Clc1ccc2c(c1)-c1ccccc1C1=NCCN12`, the T/C is 108 % of control (dose: 5.0 mg/kg/injection, schedule: Q01DX009 (ip), vehicle: saline) and 118 % of control (dose: 10.0 mg/kg/injection, schedule: Q01DX009 (ip), vehicle: saline).
As for `COc1ccc2c3c1OC1CC(O)C=CC31CCN(C)C2` (stereo unspecified), the T/C (dose: 1.25 mg/kg/injection, schedule: Q01DX009 (ip), vehicle: saline with Tween-80) was 106 % of control; the T/C (dose: 2.5 mg/kg/injection, schedule: Q01DX009 (ip), vehicle: saline) is 103 % of control; the T/C (dose: 5.0 mg/kg/injection, schedule: Q01DX009 (ip), vehicle: saline with Tween-80) was 105 % of control and 113 % of control; the T/C under setting [13] was 95 % of control.
Take `O=[N+]([O-])c1cccc([N+](=O)[O-])c1Cl`: the T/C reads like this: under setting [13], 99 % of control; (dose: 20.0 mg/kg/injection, schedule: Q01DX009 (ip), vehicle: saline with Tween-80) 94 % of control; (dose: 40.0 mg/kg/injection, schedule: Q01DX009 (ip), vehicle: saline with Tween-80) 95 % of control; (dose: 80.0 mg/kg/injection, schedule: Q01DX009 (ip), vehicle: saline with Tween-80) 93 % of control; (dose: 160.0 mg/kg/injection, schedule: Q01DX009 (ip), vehicle: saline with Tween-80) 91 % of control.
With `NC(Cc1c[nH]c2ccc(N(CCCl)CCCl)cc12)C(=O)O` (stereo unspecified), the T/C (dose: 0.25 mg/kg/injection, schedule: Q01DX009 (ip), vehicle: saline with Tween-80) is 159 % of control; the T/C (dose: 0.5 mg/kg/injection, schedule: Q01DX009 (ip), vehicle: saline with Tween-80) was 163 % of control and 185 % of control; the T/C (dose: 1.0 mg/kg/injection, schedule: Q01DX009 (ip), vehicle: saline with Tween-80) was 180 % of control and 226 % of control; the T/C (dose: 2.0 mg/kg/injection, schedule: Q01DX009 (ip), vehicle: saline with Tween-80) was 184 % of control.
`CC1(C(=O)O)CCC2(C)CCC3(C)C(=CC(=O)C4C5(C)CCC(OC6OC(C(=O)O)C(O)C(O)C6OC6OC(C(=O)O)C(O)C(O)C6O)C(C)(C)C5CCC43C)C2C1` (stereo unspecified): the T/C was 106 % of control under setting [10]; 101 % of control (dose: 200.0 mg/kg/injection, schedule: Q01DX009 (ip), vehicle: saline); 102 % of control (dose: 400.0 mg/kg/injection, schedule: Q01DX009 (ip), vehicle: saline).
For the compound `CC(C)(C)C(=O)CC(=O)C(F)(F)C(F)(F)C(F)(F)F.[Ag]`, the T/C is 97 % of control under setting [11], 94 % of control under setting [12] and 86 % of control under setting [4].
On to `CC(C)N(Cc1ccccc1)CC(O)c1ccc(Cl)cc1` (stereo unspecified), for which the T/C is 94 % of control (dose: 12.5 mg/kg/injection, schedule: Q01DX009 (ip), vehicle: saline); 86 % of control under setting [8]; 101 % of control under setting [9].
In the case of `C=C1C(=O)OC2C1CC1OC2C(C)CCC/C(C)=C\CCC1(C)O` (stereo unspecified), the T/C by setting is: under setting [12], 97 % of control; under setting [4], 101 % of control; under setting [5], 100 % of control; under setting [6], 104 % of control.
Take `COc1cccc(/C=c2\[nH]c(=O)/c(=C/c3cccc(OC)c3OC)[nH]c2=O)c1OC`: the T/C is, setting by setting: under setting [1], 89 % of control; under setting [2], 99 % of control; under setting [3], 92 % of control and 96 % of control.
With `O=C1c2ccccc2C(=O)c2c3c(cc(NCCNCCO)c21)N(CCO)CCN3`, the T/C is 121 % of control (dose: 12.5 mg/kg/injection, schedule: Q01DX009 (ip), vehicle: DMSO); 162 % of control (dose: 100.0 mg/kg/injection, schedule: Q01DX009 (ip), vehicle: DMSO); 194 % of control (dose: 200.0 mg/kg/injection, schedule: Q01DX009 (ip), vehicle: DMSO).
With `Cc1cc(C)[c]([Hg][Cl])c(C)c1`, the T/C runs as follows: (dose: 1.5 mg/kg/injection, schedule: Q01DX009 (ip), vehicle: saline with Tween-80) 110 % of control; (dose: 3.0 mg/kg/injection, schedule: Q01DX009 (ip), vehicle: saline with Tween-80) 98 % of control; (dose: 6.0 mg/kg/injection, schedule: Q01DX009 (ip), vehicle: saline with Tween-80) 99 % of control; under setting [11], 88 % of control.
Consider `Cc1cc(C)c(-c2c(C)cc(C)c(N)c2C)c(C)c1N`, for which, under “dose: 75.0 mg/kg/injection, schedule: Q04DX003 (ip), vehicle: Klucel (hydroxypropylcellulose) (HPC)”, the T/C was 91 % of control.
